Reference: patent US7008943B2, “1-(Pyrrolidin-1-ylmethyl)-3-(pyrrol-2-ylmethylidene)-2-indolinone derivatives” (Pharmacia & Upjohn Company, priority 2000, dated 2006)

Assays:
[1] = Plasma Stability Test: conversion of prodrug to drug after IV administration to dogs, HPLC analysis of blood plasma; type: in vivo; conditions: IV at 2 mg/mL, blood plasma followed by HPLC for 4 hours following dosing
Method: The prodrug (3Z)-3-[(3,5-dimethyl-1H-pyrrol-2-yl)-methylidene]-1-(1-pyrrolidinylmethyl)-1,3-dihydro-2H-indol-2-one was administered IV at 2 mg/mL to dogs. Levels of both prodrug and drug (3(Z)-3-[(3,5-dimethyl-1H-pyrrol-2-yl)-methylidene]-1,3-dihydro-2H-indol-2-one) were followed by HPLC analysis of blood plasma for 4 hours following dosing.

[2] = Aqueous solubility of prodrug versus parent compound; type: physicochemical; conditions: versus parent compound (II)
From the text: The prodrug compounds of the present invention have advantages over compounds of Formula (II) by virtue of improved aqueous solubility and formulability. […] It is contemplated that similar enhanced solubility will be observed for other compounds of Formula (I) carrying the pyrrolidin-1-ylmethyl moiety at the nitrogen of the indolinone ring. A general description of the advantages and uses of prodrugs as pharmaceutically useful compounds is given in an article by Waller and George in Br. J Clin. Pharmac., Vol. 28, pp. 497–507, 1989.

Cc1cc(C)c(/C=C2\C(=O)N(CN3CCCC3)c3ccccc32)[nH]1 [Example 1, (3Z)-3-[(3,5-Dimethyl-1H-pyrrol-2-yl)-methylidene]-1-(1-pyrrolidinylmethyl)-1,3-dihydro-2H-indol-2-one]
half-life for conversion of the prodrug to drug [1]: 7.3 min | prodrug converted into drug (from area under the curve of drug concentration vs. time) [1]: 80% | aqueous solubility compared with the parent compound [2]: increased aqueous solubility
